Tests used:
[1] = tested on: macrophage cells differentiated from THP-1 cells; assay: Suppression of PGE2 production by macrophage cells activated by amyloid β peptide aggregate (ELISA); type: cell-based, human; details: 12.5 to 100 μM compound, 24 h pretreatment; 25 μM Aβ aggregate 24 h; FIG. 1
Procedure: (§1) 1.4. Evaluation of Activity of Suppressing Activation of Macrophage Cells Induced by Amyloid β Peptide Cells of the human monocytic cell line THP-1 were suspended in RPMI1640 (10% FBS) medium, the cells were seeded in a 96-well plate at 8.0×10^4 cells/well, 100 nM 12-O-tetradecanoylphorbol 13-acetate (PMA, differentiation-inducing factor) was added thereto, and culture was conducted in the presence of 5% CO2 for 24 hours to differentiate the cells into macrophage cells. Thereafter, the medium was exchanged with another RPMI1640 (10% FBS) medium containing either the turmeric extracts (50, 100, and 200 μg/ml), termeronol A (12.5, 25, 50, or 100 μM), or termeronol B (12.5, 25, 50, or 100 μM), and culture was conducted in the presence of 5% CO2 for 24 hours to treat the cells with each specimen. Thereafter, the medium was exchanged with another RPMI1640 (2% FBS) medium containing an aggregate of 25 μM amyloid β peptides (Aβ), and culture was conducted in the presence of 5% CO2 for 24 hours to activate the cells. Thereafter, prostaglandin E2 (PGE2), the tumor necrosis factor α (TNF-α), and interleukin-1β (IL-1β) released in the medium were assayed via ELISA.

[2] = tested on: macrophage cells differentiated from THP-1 cells; assay: Suppression of TNF-α production by macrophage cells activated by amyloid β peptide aggregate (ELISA); type: cell-based, human; details: 50 μM and 100 μM compound, 24 h pretreatment; 25 μM Aβ aggregate 24 h; FIG. 2
Procedure: as §1

[3] = tested on: macrophage cells differentiated from THP-1 cells; assay: Suppression of IL-1β production by macrophage cells activated by amyloid β peptide aggregate (ELISA); type: cell-based, human; details: 50 μM and 100 μM compound, 24 h pretreatment; 25 μM Aβ aggregate 24 h; FIG. 3
Procedure: as §1

[4] = tested on: human neuroblastoma SHSY5Y cells; assay: Cell death of SHSY5Y cells induced by conditioned medium of Aβ-activated macrophage cells (WST-1 assay); type: cell-based; details: macrophage cells pretreated with termeronol B 50 μM 24 h, then 25 μM Aβ 12 h; SHSY5Y 48 h in conditioned medium; vs control (Aβ+); FIG. 4
Procedure: Cells of the human monocytic cell line THP-1 were suspended in RPMI1640 (10% FBS) medium, the cells were seeded in a 96-well plate at 8.0×10^4 cells/well, 100 nM 12-O-tetradecanoylphorbol 13-acetate (PMA, differentiation-inducing factor) was added thereto, and culture was conducted in the presence of 5% CO2 for 24 hours to differentiate the cells into macrophage cells. […]
WST-1 assays comprise: adding WST-1 (2-(4-iodophenyl)-3-(4-nitrophenyl)-5-(2,4-disulfophenyl)-2H-tetrazolium, monosodium salt, Dojindo Laboratories) to each well containing cells; conducting culture in a CO2 incubator for a given period of time to generate water-soluble formazan from WST-1 with the activity of dehydrogenase in mitochondria of viable cells; and assaying the concentration of the generated formazan. […] The formazan concentration was determined based on the absorbance at 450 nm using a microplate reader (reference wavelength: 630 nm). […]

Row | Compound | enhancement of PEG2 production by Aβ treatment [1] | enhancement of TNF-α production by Aβ treatment [2] | enhancement of IL-1β production by Aβ treatment [3] | activity of the culture supernatant for inducing cell death of brain neuronal cells [4]
1 | CC(C)=CC(=O)CC(C)c1ccc(C)c(O)c1 (stereo not shown) [termeronol A, Termeronol A] | suppress the enhancement of PEG2 production | suppress the enhancement of TNF-α production | suppress the enhancement of IL-1β production | –
2 | CC(C)=CC(=O)CC(C)c1ccc(C)cc1O (stereo not shown) [termeronol B, Termeronol B] | suppress the enhancement of PEG2 production | suppress the enhancement of TNF-α production | suppress the enhancement of IL-1β production | more suppressed
